The test system of assay [1] is APOE*3Leiden.CETP double transgenic mice. As to the kind of experiment: Hepatic inflammation (number of foci, inflammation score) in diet induced NAFLD/NASH mouse model. Conditions: for Inflammation Score (0-3), Mean ± SD / Inflammation, Number of foci, Mean ± SD: ApoE*3L-CETP mice, high fat/cholesterol diet, liver after 20 weeks of treatment. It counts as in vivo. As for the experimental part: (§1) The APOE*3Leiden.CETP double transgenic mouse is expressing a variant of the human apolipoprotein E3 (APOE3), the APOE*3Leiden, in addition to the human apolipoprotein C1 (APOC1) and CETP. […] By increasing the cholesterol content of the diet in this model, all the characteristics of human NASH develop.
(§2) Studies were performed in APOE*3Leiden.CETP mice placed on a high fat diet (24% fat w/w) with varying cholesterol content (0.25-1% cholesterol w/w). In one study (using 1% cholesterol w/w), after a 3 weeks run-in period 17 (20%) low-responder mice were removed from the study and the remaining 65 mice were sub-divided into groups of 12 mice each (+5 in the control group), matched for plasma cholesterol, triglycerides, blood glucose, body weight and age (t=0) and treatment was started. The mice received a daily gavage between 07 hr00 and 10 hr00 with either Compound N, Reference A or control (corn oil). After 4, 8, 12, 16 and 20 weeks of treatment blood samples were taken after a 5 hour fasting period (also 5 hours after compound or vehicle administration). Plasma cholesterol and triglycerides were measured. After 14 weeks of treatment 5 representative mice from the control group were sacrificed in order to assess the NASH development and to determine the termination of the study. After 20 weeks of treatment mice were sacrificed by CO2 asphyxiation, heparin heart blood was sampled and tissues were collected. Hepatic steatosis, inflammation and collagen content were analyzed.

Assay [2] has the same test system. In words: Hepatic steatosis (macrovesicular and microvesicular) in diet induced NAFLD/NASH mouse model. It counts as in vivo. Conditions: for Steatosis as % of the liver, Macrovesicular, Mean ± SD / Steatosis as % of the liver, Microvesicular, Mean ± SD: ApoE*3L-CETP mice, high fat/cholesterol diet, liver after 20 weeks of treatment; for Effect on macrovesicular steatosis vs control: Compound N p<0.001 vs. control. The protocol: as §1, §2

The test system is the same in assay [3]. As to the kind of experiment: Hepatic fibrosis (collagen content) in diet induced NAFLD/NASH mouse model. Format: in vivo. Conditions: for Fibrosis, Hydroxyprolin/Prolin, Mean ± SD: ApoE*3L-CETP double transgenic mice, hepatic collagen content, after 20 weeks of treatment. As for the experimental part:
as §1, §2

Assay [4] shares this test system. As to the kind of experiment: Hepatic cholesterol content (liver lipids) in diet induced NAFLD/NASH mouse model. It counts as in vivo. The following applies: for Effect on hepatic cholesterol ester vs control: Compound N p<0.001, Reference A p<0.05; for Liver lipids, Cholesterol ester (CE in FIG. 1), AVG ± SD / Liver lipids, Free cholesterol (FC in FIG. 1), AVG ± SD: ApoE*3L-CETP mice, high fat diet, 0.25% cholesterol w/w, daily gavage. As for the experimental part: as §1, §2
(§3) A further study was performed in APOE*3Leiden.CETP mice with a 4-week active treatment arm in mice placed on a high fat diet (24% fat and 0.25% cholesterol diet, both w/w) to collect additional metabolic data.
A mild decrease in cholesterol ester was also observed with Reference A (p<0.05). A 43% reduction in total hepatic cholesterol (statistics not performed).

The test system is the same in assay [5]. In words: Fecal bile acid content in diet induced NAFLD/NASH mouse model. Conditions: for Total bile acids (fecal), AVG ± SD: ApoE*3L-CETP double transgenic mice, feces. It counts as in vivo. The protocol:
as §1, §2, §3

For assay [6] the test system is unchanged. Conditions: earlier study; cited from earlier work.
Assay [7] has the same test system. In words: Total plasma cholesterol in diet induced NAFLD/NASH mouse model. It counts as in vivo. The protocol: as §1, §2, §3
Plasma HDL cholesterol values were adoubled (p<0.001, data not shown), underlying the fact that the reduction in plasma cholesterol was specific to the atherogenic apoB particle associated cholesterol fraction.

Results on three compounds are retold here after US12465580B2, “Substituted fatty acids for treating non-alcoholic steatohepatitis” (BASF AS, priority 2015, dated 2025).

Molecules are shown by their SMILES.

As for `CN(CCOc1ccc(CC2SC(=O)NC2=O)cc1)c1ccccn1` (stereo not drawn) [Rosiglitazone], in assay [1], the “Inflammation Score (0-3), Mean ± SD” value is given as 1.7 ± 1.2 and the “Inflammation, Number of foci, Mean ± SD” value is on record as 1.6 ± 1.6. Also, in assay [2], the “Steatosis as % of the liver, Macrovesicular, Mean ± SD” value stood at 14.3 ± 20.2%; the “Steatosis as % of the liver, Microvesicular, Mean ± SD” value is 52.5 ± 18.4%; the “Effect on macrovesicular steatosis vs control” value was “No significant effect”. For the same compound, the “Fibrosis, Hydroxyprolin/Prolin, Mean ± SD” value in assay [3] came to 0.036 ± 0.007.
`CC/C=C\C/C=C\C/C=C\C/C=C\C/C=C\CCCCOC(CC)C(=O)O` (stereo not drawn) [Reference A, 2-((5Z,8Z,11Z,14Z,17Z)-icosa-5,8,11,14,17-pentaenyloxy)butanoic acid, reference compound]: the “Effect on hepatic cholesterol ester vs control” value in assay [4] (0.25% cholesterol diet w/w) was “mild decrease”. Further, in assay [4], the “Liver lipids, Cholesterol ester (CE in FIG. 1), AVG ± SD” value stood at 17.0 ± 3.7 μg lipid/mg liver protein and the “Liver lipids, Free cholesterol (FC in FIG. 1), AVG ± SD” value came out at 9.5 ± 1.3 μg lipid/mg liver protein. Moreover, in assay [1], the “Inflammation Score (0-3), Mean ± SD” value was 1.9 ± 1.2 and the “Inflammation, Number of foci, Mean ± SD” value came out at 1.9 ± 1.3. For the same compound, in assay [1] (Reference A p<0.01), the “Effect on inflammatory foci vs control” value was “milder reduction”. Besides, in assay [2], the “Steatosis as % of the liver, Macrovesicular, Mean ± SD” value stood at 21.2 ± 15.0%; the “Steatosis as % of the liver, Microvesicular, Mean ± SD” value turned out to be 34.6 ± 11.8%; the “Effect on macrovesicular steatosis vs control” value is listed as “No significant effect”. In addition, the “Total bile acids (fecal), AVG ± SD” value in assay [5] is reported as 4.0 ± 1.2 μmol/100 gr mouse/day. The “Effect on fecal bile acid excretion vs control” value in assay [5] (p<0.05 vs. control) is reported as “milder yet significant decrease”. For the same compound, in assay [6], the “Effect on plasma cholesterol, previously shown” value is “significantly decrease plasma cholesterol”.
Consider `CC/C=C\C/C=C\C/C=C\C/C=C\C/C=C\CCCCSC(CC)(CC)C(=O)O` [Compound N, 2-ethyl-2-((5Z,8Z,11Z,14Z,17Z)-icosa-5,8,11,14,17-pentaenylthio)butanoic Acid], for which, in assay [4] (0.25% cholesterol diet w/w), the “Effect on hepatic cholesterol ester vs control” value was “significant decrease”. The “Reduction in total hepatic cholesterol” value in assay [4] (0.25% cholesterol diet w/w, statistics not performed) was 43%. Besides, in assay [4], the “Liver lipids, Cholesterol ester (CE in FIG. 1), AVG ± SD” value was 10.6 ± 2.1 μg lipid/mg liver protein and the “Liver lipids, Free cholesterol (FC in FIG. 1), AVG ± SD” value worked out at 9.8 ± 1.2 μg lipid/mg liver protein. In addition, in assay [1], the “Inflammation Score (0-3), Mean ± SD” value was 0.6 ± 0.8 and the “Inflammation, Number of foci, Mean ± SD” value is 0.6 ± 0.6. For the same compound, in assay [1] (vs control), the “Effect on total inflammation score” value is reported as “significant reduction”. Besides, in assay [1] (vs control, p<0.001), the “Reduction in the number of inflammatory foci” value was “approximately 85%”. Also, in assay [2], the “Steatosis as % of the liver, Macrovesicular, Mean ± SD” value is listed as 1.1 ± 1.0%; the “Steatosis as % of the liver, Microvesicular, Mean ± SD” value worked out at 57.9 ± 25.4%; the “Effect on macrovesicular steatosis vs control” value is “abolished macrovesicular steatosis”. In addition, the “Total bile acids (fecal), AVG ± SD” value in assay [5] amounted to 3.2 ± 0.6 μmol/100 gr mouse/day. Further, in assay [5] (vs control, p=0.006), the “Reduction in fecal bile acid excretion” value is recorded as 50%. The “Fibrosis, Hydroxyprolin/Prolin, Mean ± SD” value in assay [3] came out at 0.027 ± 0.007. For the same compound, the “Reduction in hepatic collagen content” value in assay [3] (compared to control animals, p<0.005) was found to be 30%. Besides, the “Reduction in total plasma cholesterol” value in assay [7] (after 4 weeks versus control, p<0.001) is reported as 52%. Besides, in assay [7] (p<0.001, data not shown), the “Plasma HDL cholesterol values” was “doubled”. Moreover, the “Total plasma cholesterol, t = 0, AVG ± SD” value in assay [7] (t = 0 weeks (baseline, start of treatment)) stood at 6.4 ± 1.1 mM. In addition, the “Total plasma cholesterol, t = 2, AVG ± SD” value in assay [7] (t = 2 weeks of treatment) is listed as 4.2 ± 0.7 mM. Further, the “Total plasma cholesterol, t = 4, AVG ± SD” value in assay [7] (t = 4 weeks of treatment) amounted to 4.7 ± 1.3 mM. Also, the “Effect on plasma cholesterol, previously shown” value in assay [6] is “significantly decrease plasma cholesterol”.
